One assay concerns the target T1, N-acetyltransferase Eis (Mycobacterium tuberculosis (strain ATCC 25618 / H37Rv), UniProt P9WFK7).
T1 sequence (P9WFK7 whole entry): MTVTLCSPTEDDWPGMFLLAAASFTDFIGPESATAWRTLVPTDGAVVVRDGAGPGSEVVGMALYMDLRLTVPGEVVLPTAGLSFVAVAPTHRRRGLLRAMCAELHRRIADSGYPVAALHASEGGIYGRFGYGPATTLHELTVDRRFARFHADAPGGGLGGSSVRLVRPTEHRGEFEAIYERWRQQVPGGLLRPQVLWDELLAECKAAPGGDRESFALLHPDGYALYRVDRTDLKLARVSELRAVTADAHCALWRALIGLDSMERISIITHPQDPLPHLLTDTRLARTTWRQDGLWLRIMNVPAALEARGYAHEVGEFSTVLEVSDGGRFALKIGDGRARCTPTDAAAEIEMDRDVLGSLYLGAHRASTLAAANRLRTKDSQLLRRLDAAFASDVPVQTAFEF
The assay can be described thus: Inhibition of Mycobacterium tuberculosis H37Rv Eis expressed in Escherichia coli BL21(DE3) using Acetyl-CoA as substrate preincubated for 10 mins followed by substrate addition measured every 30 sec for 10 mins.

In assay [1] the test system is Mycobacterium tuberculosis. Nature of the assay: Potentiation of kanamycin induced-antimicrobial activity against Mycobacterium tuberculosis H37Rv at 100 uM preincubated for 24 hrs followed by kanamycin addition measured after 6 days by Alamar blue assay. It counts as functional.
Assay [2] deals with T2, N-acetyltransferase Eis (Mycobacterium tuberculosis (strain ATCC 25618 / H37Rv)) (UniProt P9WFK7).
T2 sequence (whole entry): T1 sequence (P9WFK7 whole entry)
The assay can be described thus: Inhibition of Mycobacterium tuberculosis H37Rv Eis expressed in Escherichia coli BL21(DE3) at 20 uM using Acetyl-CoA as substrate after 5 mins by HTS assay.

Assay [3] deals with Mycobacterium tuberculosis. Nature of the assay: Inhibition of Mycobacterium tuberculosis K204 Eis assessed as kanamycin MIC at 100 uM preincubated for 24 hrs followed by kanamycin addition measured after 6 days by Alamar blue assay (Rvb >= 10 ug/ml). Background: Alamar Blue is a resazurin reagent that responds to reducing activity.
Assay [4] deals with Mycobacterium tuberculosis. Nature of the assay: Potentiation of kanamycin induced-antimicrobial activity against Mycobacterium tuberculosis H37Rv at 29.7 uM preincubated for 24 hrs followed by kanamycin addition measured after 6 days by Alamar blue assay. It counts as functional.
The subject of assay [5] is Mycobacterium tuberculosis. The assay can be described thus: Inhibition of Mycobacterium tuberculosis K204 Eis assessed as kanamycin MIC at 29.7 uM preincubated for 24 hrs followed by kanamycin addition measured after 6 days by Alamar blue assay (Rvb >= 10 ug/ml).
In assay [6] the test system is Mycobacterium tuberculosis. Nature of the assay: Inhibition of Mycobacterium tuberculosis K204 Eis assessed as kanamycin MIC at 33.9 uM preincubated for 24 hrs followed by kanamycin addition measured after 6 days by Alamar blue assay (Rvb >= 10 ug/ml).
The subject of assay [7] is Mycobacterium tuberculosis. The assay can be described thus: Potentiation of kanamycin induced-antimicrobial activity against Mycobacterium tuberculosis H37Rv at 33.9 uM preincubated for 24 hrs followed by kanamycin addition measured after 6 days by Alamar blue assay. Type of assay: functional.
The test system of assay [8] is Mycobacterium tuberculosis. The assay can be described thus: Potentiation of kanamycin induced-antimicrobial activity against Mycobacterium tuberculosis H37Rv at 8.9 uM preincubated for 24 hrs followed by kanamycin addition measured after 6 days by Alamar blue assay. Type of assay: functional.
Assay [9] has as its system Mycobacterium tuberculosis. Nature of the assay: Inhibition of Mycobacterium tuberculosis K204 Eis assessed as kanamycin MIC at 8.9 uM preincubated for 24 hrs followed by kanamycin addition measured after 6 days by Alamar blue assay (Rvb >= 10 ug/ml).
Assay [10] relates to Mycobacterium tuberculosis. The assay can be described thus: Inhibition of Mycobacterium tuberculosis K204 Eis assessed as kanamycin MIC at 52.6 uM preincubated for 24 hrs followed by kanamycin addition measured after 6 days by Alamar blue assay (Rvb >= 10 ug/ml).
The test system of assay [11] is Mycobacterium tuberculosis. Nature of the assay: Potentiation of kanamycin induced-antimicrobial activity against Mycobacterium tuberculosis H37Rv at 52.6 uM preincubated for 24 hrs followed by kanamycin addition measured after 6 days by Alamar blue assay. It counts as functional.
Assay [12] concerns Mycobacterium tuberculosis. The assay can be described thus: Inhibition of Mycobacterium tuberculosis K204 Eis assessed as kanamycin MIC at 54.2 uM preincubated for 24 hrs followed by kanamycin addition measured after 6 days by Alamar blue assay (Rvb >= 10 ug/ml).
In assay [13] the test system is Mycobacterium tuberculosis. The assay can be described thus: Potentiation of kanamycin induced-antimicrobial activity against Mycobacterium tuberculosis H37Rv at 54.2 uM preincubated for 24 hrs followed by kanamycin addition measured after 6 days by Alamar blue assay. Type of assay: functional.
The subject of assay [14] is Mycobacterium tuberculosis. Nature of the assay: Inhibition of Mycobacterium tuberculosis K204 Eis assessed as kanamycin MIC at 32.6 uM preincubated for 24 hrs followed by kanamycin addition measured after 6 days by Alamar blue assay (Rvb >= 10 ug/ml).
The subject of assay [15] is Mycobacterium tuberculosis. Nature of the assay: Potentiation of kanamycin induced-antimicrobial activity against Mycobacterium tuberculosis H37Rv at 32.6 uM preincubated for 24 hrs followed by kanamycin addition measured after 6 days by Alamar blue assay. It counts as functional.
Assay [16] deals with Mycobacterium tuberculosis. The assay can be described thus: Potentiation of kanamycin induced-antimicrobial activity against Mycobacterium tuberculosis H37Rv at 64.5 uM preincubated for 24 hrs followed by kanamycin addition measured after 6 days by Alamar blue assay. Type of assay: functional.
The subject of assay [17] is Mycobacterium tuberculosis. Nature of the assay: Inhibition of Mycobacterium tuberculosis K204 Eis assessed as kanamycin MIC at 64.5 uM preincubated for 24 hrs followed by kanamycin addition measured after 6 days by Alamar blue assay (Rvb >= 10 ug/ml).
Assay [18] has as its system Mycobacterium tuberculosis. Nature of the assay: Inhibition of Mycobacterium tuberculosis K204 Eis assessed as kanamycin MIC at 1.5 uM preincubated for 24 hrs followed by kanamycin addition measured after 6 days by Alamar blue assay (Rvb >= 10 ug/ml).
Assay [19] relates to Mycobacterium tuberculosis. Nature of the assay: Potentiation of kanamycin induced-antimicrobial activity against Mycobacterium tuberculosis H37Rv at 1.5 uM preincubated for 24 hrs followed by kanamycin addition measured after 6 days by Alamar blue assay. Type of assay: functional.
For assay [20], the system named is Mycobacterium tuberculosis. The assay can be described thus: Potentiation of kanamycin induced-antimicrobial activity against Mycobacterium tuberculosis H37Rv at 25.1 uM preincubated for 24 hrs followed by kanamycin addition measured after 6 days by Alamar blue assay. Type of assay: functional.
Assay [21] concerns Mycobacterium tuberculosis. The assay can be described thus: Inhibition of Mycobacterium tuberculosis K204 Eis assessed as kanamycin MIC at 25.1 uM preincubated for 24 hrs followed by kanamycin addition measured after 6 days by Alamar blue assay (Rvb >= 10 ug/ml).
Assay [22] has as its system Mycobacterium tuberculosis. Nature of the assay: Inhibition of Mycobacterium tuberculosis K204 Eis assessed as kanamycin MIC at 15.5 uM preincubated for 24 hrs followed by kanamycin addition measured after 6 days by Alamar blue assay (Rvb >= 10 ug/ml).
The test system of assay [23] is Mycobacterium tuberculosis. The assay can be described thus: Potentiation of kanamycin induced-antimicrobial activity against Mycobacterium tuberculosis H37Rv at 15.5 uM preincubated for 24 hrs followed by kanamycin addition measured after 6 days by Alamar blue assay. Type of assay: functional.

Structures are written as SMILES. Activity calls are given as the source filed them. No cut-off for these calls is given here.

By IC50 is commonly meant the concentration that gives 50% inhibition. In turn, `O=C(CN1C(=O)C2(OCCO2)c2ccccc21)c1ccc(Br)cc1` gave an IC50 on N-acetyltransferase Eis of more than 200000 nM. Moreover, the MIC is not above 1.25 µg/mL in assay [1] and more than 10 µg/mL in assay [3]. Also, in assay [2], the inhibition result was “Active”.

For the compound `O=C(CN1C(=O)C2(OCCO2)c2ccccc21)c1cccc(F)c1`, the values for the MIC in assay [4] and in assay [5] were not above 1.25 µg/mL and 2.5 to 5 µg/mL, respectively.

Consider `O=C(CN1C(=O)C2(OCCO2)c2ccccc21)c1ccccc1F`, for which the MIC in assay [1] is not above 1.25 µg/mL; in [3] it was 10 µg/mL.

At N-acetyltransferase Eis, `COC(=O)c1cc2occc2n1CC(=O)c1ccc(F)cc1` had an IC50 of 300 nM. The MIC was 10 µg/mL in [6] and not above 1.25 µg/mL in [7].

On to `COC(=O)c1cc2occc2n1CC(=O)c1ccc2ccccc2c1`, for which the values for the MIC in assay [1] and in [3] were not above 1.25 µg/mL and 10 µg/mL, respectively.

As for `COc1cccc(C(=O)CN2C(=O)C3(OCCO3)c3ccccc32)c1`, the MIC in [1] is not above 1.25 µg/mL; in [3], more than 10 µg/mL.

The compound `COC(=O)c1cc2occc2n1CC(=O)C(C)(C)C` came in with an IC50 against N-acetyltransferase Eis of more than 200000 nM. For the same compound, the MIC in [1] is not above 1.25 µg/mL; in assay [3], more than 10 µg/mL.

Consider `O=C(CN1C(=O)C2(OCCO2)c2ccccc21)c1ccc(F)cc1`, for which the IC50 at N-acetyltransferase Eis was found to be 90 nM. In addition, the results for the MIC in assay [8] and in assay [9] were not above 1.25 µg/mL and 5 µg/mL, respectively. In addition, the inhibition result in [2] was “Active”.

For the compound `COC(=O)c1cc2occc2n1CC(=O)c1cccc(Br)c1`, the midpoint of inhibition on N-acetyltransferase Eis, the IC50, lay at 500 nM. In addition, the MIC is more than 10 µg/mL in [10] and not above 1.25 µg/mL in assay [11].

With `O=C(CN1C(=O)C2(OCCO2)c2ccccc21)c1cccc(Br)c1`, the MIC in [12] was 5 to 10 µg/mL; in [13], not above 1.25 µg/mL.

On to `O=C(CN1C(=O)C2(OCCO2)c2ccccc21)c1cccc([N+](=O)[O-])c1`, for which the MIC was not above 1.25 µg/mL in assay [1] and 5 to 10 µg/mL in [3].

With `COC(=O)c1cc2occc2n1CC(=O)c1ccc(C)cc1`, the MIC was not above 1.25 µg/mL in assay [1] and 5 to 10 µg/mL in [3].

In the case of `Cc1ccc(C(=O)CN2C(=O)C3(OCCO3)c3ccccc32)cc1`, the MIC in assay [1] is not above 1.25 µg/mL; in [3], 5 to 10 µg/mL.

Take `O=C(CN1C(=O)C2(OCCO2)c2ccccc21)c1ccc2ccccc2c1`: the MIC in assay [1] is not above 1.25 µg/mL; in assay [3] it was 10 µg/mL.

Regarding `O=C(CN1C(=O)C2(OCCO2)c2ccccc21)c1ccc(Cl)cc1`, the IC50 on N-acetyltransferase Eis was determined as 2200 nM. Also, the MIC in assay [1] was not above 1.25 µg/mL; in assay [3] it was 5 to 10 µg/mL. Further, the inhibition entry in assay [2] is “Active”.

Regarding `O=C(CN1C(=O)C2(OCCO2)c2ccccc21)c1ccccc1`, the midpoint of inhibition against N-acetyltransferase Eis, the IC50, lay at 330 nM. Besides, the results for the MIC in assay [14] and in assay [15] were 5 µg/mL and not above 1.25 µg/mL, respectively.

As for `COC(=O)c1cc2occc2n1CC(=O)c1ccccc1`, the MIC in assay [1] is not above 1.25 µg/mL; in assay [3] it was 5 to 10 µg/mL. For the same compound, the inhibition result in [2] is “Active”.

As for `COC(=O)c1cc2occc2n1CC(=O)c1ccc(Br)cc1`, the MIC in assay [1] was not above 1.25 µg/mL; in [3] it was more than 10 µg/mL.

Consider `CCC(=O)Cn1c(C(=O)OC)cc2occc21`, for which the IC50 at N-acetyltransferase Eis was more than 200000 nM. In addition, the MIC in assay [1] is not above 1.25 µg/mL; in [3], more than 10 µg/mL.

`COC(=O)c1cc2occc2n1CC(=O)c1cccc(OC)c1` returned an IC50 against N-acetyltransferase Eis of more than 200000 nM. Moreover, the MIC in assay [1] is not above 1.25 µg/mL; in assay [3], more than 10 µg/mL.

Regarding `COC(=O)c1cc2occc2n1CC(=O)c1ccccc1F`, the MIC in assay [1] is not above 1.25 µg/mL; in assay [3], 10 µg/mL.

Consider `CCC(=O)CN1C(=O)C2(OCCO2)c2ccccc21`, for which, on N-acetyltransferase Eis, the IC50 was more than 200000 nM. Further, the figures for the MIC in assay [1] and in [3] were not above 1.25 µg/mL and more than 10 µg/mL, respectively.

Regarding `COC(=O)c1cc2occc2n1CC(=O)c1ccc(Cl)cc1`, the MIC is not above 1.25 µg/mL in assay [16] and more than 10 µg/mL in assay [17].

As to `CC(C)(C)C(=O)CN1C(=O)C2(OCCO2)c2ccccc21`, the IC50 against N-acetyltransferase Eis is more than 200000 nM. The values for the MIC in [1] and in assay [3] were not above 1.25 µg/mL and more than 10 µg/mL, respectively.

In the case of `O=C(CN1C(=O)C2(OCCO2)c2ccccc21)c1cccc(Cl)c1`, the MIC in assay [18] is more than 10 µg/mL; in assay [19], not above 1.25 µg/mL.

Take `COC(=O)c1cc2occc2n1CC(=O)c1cccc(Cl)c1`: the figures for the MIC in [20] and in assay [21] were not above 1.25 µg/mL and more than 10 µg/mL, respectively.

On to `COC(=O)c1cc2occc2n1CC(=O)c1cccc(F)c1`, for which the MIC in assay [22] is 10 µg/mL; in assay [23] it was not above 1.25 µg/mL.
